# Patent US9115072B2, “Compounds and method for reducing uric acid” (WELLSTAT THERAPEUTICS CORPORATION, priority 2008, dated 2015)
# Assay: Rat oral single-dose pharmacokinetic study
# Type: in vivo
# Details: 100 mg/kg single oral gavage
# Experimental: • 1. Male Sprague-Dowley rats received single oral gavage of Compound EH, 100 mg/kg, and plasma was collected at certain times. • 2. Rat plasma was stored at −80° C. until the day of analysis. • 3. Samples were thawed on 37° C. bath for 5 min and vortexed at top speed for 10 sec. • 4. Rat plasma, 0.1 mL was mixed with 0.2 mL Acetonitrile, vortexed 1 min, spun down 14000 rpm, 17000 g, at 4° C., for 25 min. • 5. Supernatants were filtered through 0.45 micron, 4 mm, PTFE membrane syringe filter (Phenomenex #AF0-3102-52), and 15 microL were injected and resolved on Luna 3 micron, 100 A pore, C8(2), 150×3 mm, reverse phase column (Phenomenex#00F-4248-YO, SN#259151-7) in 50 min linear gradient from 40% to 69% of (0.1% Formic Acid, 89.9% Acetonitrile, 10% Methanol) at 0.25 mL/min, 107 bar, 37° C. column temperature, method 406975M1, Sequence 0226-09A, Agilent 1100 LC-MS.
# All samples were run in duplicate, 210 nm and 230 nm Absorbances, Negative and Positive ionization spectrograms recorded.
# Step 1. Rat plasma from V2 and V3 animals (“vehicle”, pooled), 0.19 mL, was mixed with 0.01 mL 20× stock of Compound EH in Methanol to make 500 microM, 250 microM, 125 microM, . . . , concentrations of Compound EH in plasma.
# For example: 190 microL plasma+10 microL of 10 mM Compound EH in methanol=0.2 mL plasma with 500 microM Compound EH.
# Step 2. Samples from step 1 were vortexed for 10 sec at top speed.
# Step 3. 0.4 mL of acetonitrile was added to all samples from Step 2, and all vials were vortexed at top speed for 1 min.
# Step 4. All samples from step 3 were spun down 14000 rpm, 17000 g, at 4° C., for 25 min.
# Step 5. Supernatants were filtered through 0.45 micron, 4 mm, PTFE membrane syringe filter (Phenomenex #AF0-3102-52), 15 microL were injected and resolved on Luna 3 micron, 100 A pore, C8(2), 150×3 mm, reverse phase column
smiles,measurement,setting,value
"Cc1ccc(CC(=O)O)cc1OCc1c(C)cccc1C [Compound EH, 2-(3-(2,6-Dimethylbenzyloxy)-4-methylphenyl)acetic acid]",concentration at 0 h,"male, Sprague-Dawley, rat, plasma, time 0 HR, read-out: Compound EH concentration in rat plasma",0 nM
same,concentration at 0.25 h,"male, Sprague-Dawley, rat, plasma, time 0.25 HR, read-out: Compound EH concentration in rat plasma",349 µM
same,concentration at 0.5 h,"male, Sprague-Dawley, rat, plasma, time 0.5 HR, read-out: Compound EH concentration in rat plasma",723 µM
same,concentration at 2 h,"male, Sprague-Dawley, rat, plasma, time 2 HR, read-out: Compound EH concentration in rat plasma",79 µM
same,concentration at 4 h,"male, Sprague-Dawley, rat, plasma, time 4 HR, read-out: Compound EH concentration in rat plasma",126 µM
same,concentration at 6 h,"male, Sprague-Dawley, rat, plasma, time 6 HR, read-out: Compound EH concentration in rat plasma",112 µM
same,concentration at 8 h,"male, Sprague-Dawley, rat, plasma, time 8 HR, read-out: Compound EH concentration in rat plasma",48 µM
same,concentration at 24 h,"male, Sprague-Dawley, rat, plasma, time 24 HR, read-out: Compound EH concentration in rat plasma",0 nM
same,Cmax,"male, Sprague-Dawley, rat plasma",723 µM
same,AUC(0-24),rat plasma,1765 µM·h
